Assay results from BindingDB's records for doi:10.7270/Q2DV1H7P (Burnham Center For Chemical Genomics, 2009).

target: Runt-related transcription factor 1 (Homo sapiens, UniProt Q01196); assay: disruptors of Runt domain/CBFb-SMMHC interaction – biochemical, FRET, Cerulean-Runt, Venus-CBFb-SMMHC, uHTS, primary screen (AID 1434); conditions: pH 7.4; 23 °C
Sequence (Q01196 whole entry, the tested form may be a part): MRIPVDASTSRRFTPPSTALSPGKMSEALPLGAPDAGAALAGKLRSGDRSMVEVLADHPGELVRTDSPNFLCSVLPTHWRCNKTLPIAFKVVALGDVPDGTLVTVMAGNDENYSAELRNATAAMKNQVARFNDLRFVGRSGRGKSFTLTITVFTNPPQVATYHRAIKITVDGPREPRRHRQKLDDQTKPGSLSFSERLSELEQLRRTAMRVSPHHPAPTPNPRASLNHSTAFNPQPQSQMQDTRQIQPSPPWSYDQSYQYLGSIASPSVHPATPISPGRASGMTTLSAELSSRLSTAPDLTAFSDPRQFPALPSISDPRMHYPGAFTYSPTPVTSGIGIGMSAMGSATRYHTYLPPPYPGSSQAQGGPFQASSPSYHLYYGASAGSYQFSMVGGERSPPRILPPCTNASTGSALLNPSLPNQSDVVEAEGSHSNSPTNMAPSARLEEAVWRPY

`CN1c2ccsc2C(=O)C(C(=S)Nc2ccc(F)c(Cl)c2)S1(=O)=O` (stereo not drawn) and `Cc1cc2c(c(=O)n1CCc1ccccc1)C(c1ccco1)C(C#N)C(=N)O2` (stereo not drawn) [SMR000149533] are the same in IC50: 100 µM for the first, 100 µM for the second.

With `Cc1ccc(C)c(-c2csc(N=NC(C)c3cc4c(ccc5ccccc54)oc3=O)n2)c1` (stereo not drawn) [MLS000559785] the IC50 was 10.1 µM.
